Earlier results, collected in patent US20050159471A1, “Compositions of a benzenesulfonamide or methylsulfonylbenzene cyclooxygenase-2 selective inhibitor and a cholinergic agent for the treatment of reduced blood flow or trauma to the central nervous system” (Pharmacia Corporation, priority 2003, published 2005).

Settings: administered to subjects following stroke

Substance: citicoline
- behavioral parameters: improvement in behavioral parameters
- infarction volume: decrease in infarction volume
